Laboratory results published in ChEMBL document CHEMBL3832075, “DailyMed|setid=ff7c9b1c-4192-4d09-a2ab-b80ec14cd424 | PENTOXIL- pentoxifylline tablet, film coated, extended release|UPSHER-SMITH LABORATORIES, INC”.

Tests used:
[1] = (§1) Pharmacokinetic parameters for Pentoxifylline evaluated after oral administration of Pentoxifylline tablet and in aqueous solution.; type: ADME, organism-based; conditions: human, in vivo, dosed compound id 54, dosed compound name PENTOXIFYLLINE, tissue Plasma
[2] = test system: Homo sapiens; assay: as §1; type: ADME, organism-based; conditions: in vivo, po, dose 400 mg, dosed compound id 54, dosed compound name PENTOXIFYLLINE, tissue Plasma

For `CC(=O)CCCCn1c(=O)c2c(ncn2C)n(C)c1=O` [PENTOXIFYLLINE], the half-life ([1]; dose 100 to 400 mg) was 24 to 48 min, the Tmax [1] was 1 h and the Tmax [2] was 2 to 4 h.
